Values of other authors as cited in patent publication US9918970B2, “Pharmaceutical composition comprising solifenacin” (Astellas Pharma Inc., priority 2010, dated 2018).

Target: muscarinic M3 receptor (Homo sapiens, UniProt P20309)
Sequence (P20309 whole entry): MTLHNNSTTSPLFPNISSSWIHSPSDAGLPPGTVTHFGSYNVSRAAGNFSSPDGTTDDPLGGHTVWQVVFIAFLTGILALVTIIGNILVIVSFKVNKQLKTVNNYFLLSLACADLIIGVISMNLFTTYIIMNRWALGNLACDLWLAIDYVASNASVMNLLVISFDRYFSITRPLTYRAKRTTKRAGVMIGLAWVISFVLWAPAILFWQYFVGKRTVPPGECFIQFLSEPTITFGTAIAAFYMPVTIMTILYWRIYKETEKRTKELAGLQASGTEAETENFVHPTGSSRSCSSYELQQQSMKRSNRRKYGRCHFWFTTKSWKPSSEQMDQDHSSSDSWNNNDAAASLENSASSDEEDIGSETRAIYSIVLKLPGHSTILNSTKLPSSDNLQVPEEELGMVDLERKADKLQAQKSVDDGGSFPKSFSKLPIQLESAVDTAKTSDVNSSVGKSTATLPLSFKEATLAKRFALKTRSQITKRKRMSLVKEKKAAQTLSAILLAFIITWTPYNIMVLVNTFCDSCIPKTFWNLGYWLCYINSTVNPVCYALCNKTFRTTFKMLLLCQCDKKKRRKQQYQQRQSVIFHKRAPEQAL

O=C(O[C@H]1CN2CCC1CC2)N1CCc2ccccc2[C@@H]1c1ccccc1 [solifenacin, (R)-quinuclidin-3-yl (S)-1-phenyl-1,2,3,4-tetrahydroisoquinoline-2-carboxylate]
antagonistic activity against muscarinic M3 receptor (in words): excellent selective antagonistic activity
selectivity for the M3 receptor as compared with the M2 receptor (in words) (M3 in smooth muscle, gland tissues, M2 in heart): higher selectivity
